Laboratory results as given in patent publication US20040058851A1, “Specific autoimmune reactions against isomerised/optically inverted epitopes: application for diagnosis of autoimmune diseases” (priority 1999, published 2004).
No end group written: not given here.

How the values were obtained:
[1] = tested on: immunoaffinity purified RA auto-antibodies; assay: Immuno-blotting of cellulose-bound spot peptides with immunoaffinity purified RA auto-antibodies (Example 5); type: binding, human; conditions: IgM RF eluted from IgG Sepharose, 1 μg/mL
Text: Analysis of IgM auto-antibodies opens up the possibility of removing endogenous IgG from the serum samples prior to analysis for auto-antibodies.
1. IgG is coupled to CNBr activated Sepharose using the manufacturers instructions (Pharmacia, Upsala, Sweden).
2. The IgG Sepharose is packed in a suitable column (i.e. a disposable DG10 column, BioRad laboratories, Richmond, Calif.). The column is washed with at least 10 column volumes PBS and with 10 column volumes 0.1 M sodium acetate, 0.15 M sodium chloride pH 3.5 and finally equilibrated in PBS.
3. Serum from RA patients is diluted 10 times in PBS and loaded on the column. The column is washed with PBS until the absorbency (OD 280 nm) reaches base-line.
4. Bound RF's are eluted with 0.1 M sodium acetate, 0.15 M sodium chloride pH 3.5.
5. IgM is separated from IgG and IgA by gel-filtration on a Sephadex G-200 column in 0.1 M sodium acetate, 0.15 M sodium chloride pH 3.5.
6. Eluted IgM is diluted in PBS-BT to 1 μg/mL and assayed as described below.
Seven amino-acid peptides extending over the Asn-315 residue were synthesised by spot synthesis using Whatman 540 paper (Maidstone, U.K.), using the previously described procedures (Frank, 1992, Kramer et al 1994). The peptides were automatically prepared using a spot synthesis method (Abimed, Langenfeld, F R G). The following peptides were synthesised, covalently attached via the carboxy-terminus: […]

[2] = tested on: human immunoglobulin in sera from patients with multiple sclerosis; assay: Homogeneous RIA with 125I BSA-BS3 MBP octapeptide tracer in MS and control sera (Example 6); type: binding; conditions: free peptide 10 μg/ml, 25 μl; % inhibition higher in MS sera than control sera (p=0.008); FIG. 9C
Text: For this purpose the MBP derived octapeptide Pro-Ser-Glu-γ-Gly-Lys-Gly-Arg-Gly (γL) was manufactured synthetically using standard FMOC chemistry. The peptide was conjugated to bovine serum albumin […] by Bis-[sulfosuccinimidyl]suberate(BS^3) according to the manufacturers instructions (Pierce) and iodinated with ^125I using the chloramine T protocol as described in Example 4.
Serum from 9 MS-patients and 8 healthy persons are reacted overnight with ^125I—BSA-S^3-Pro-Ser-Glu-y-Gly-Lys-Gly-Arg-Gly followed by precipitation of immune complexes with protein A Sepharose. Serum samples are diluted 1:200 in IMP buffer. The ^125I BSA-BS^3-Pro-Ser-Glu-y-Gly-Lys-Gly-Arg-Gly tracer is diluted in IMP buffer (to an activity of 100000 CPM/25 μl). Seventy-five Al of diluted serum sample is mixed with 25 μl tracer and 25 μl of either IMP buffer or free (unconjugated/unlabelled) Pro-Ser-Glu-y-Gly-Lys-Gly-Arg-Gly peptide (in a concentration of 10 μg/ml in IMP buffer) is added to this mixture. This mixture incubated overnight at 4° C. Protein A Sepharose (PAS) 20 μl/sample vial is weighed out and washed 3 times with 10 ml IMP washing buffer, and transferred to eppendorf 1.5 ml tubes using a repeater pipette. The PAS is sedimented by centrifugation at 2000 RPM 2 min., and the supernatant is aspirated using a suction device (or a pipette). […]

[3] = tested on: auto-antibodies in RA sera; assay: ELISA of serum auto-antibodies on MTP coated with Thy-GA peptide conjugate (Example 2); type: binding, human; conditions: RA RF+ sera vs RA RF- sera vs control sera; serum diluted one-hundred fold; conjugate coated at 10 μg/ml; FIG. 5
Text: It was investigated whether auto-antibodies would recognise an Asn-315 derived septa-peptide and whether such auto-antibodies are a characteristic feature of rheumatoid arthritis. In order to carry out such investigations the IgG Fc Asn-315 derived (βL) septa-peptide Trp-Leu-Asp-β-Gly-Lys-Glu-Tyr, was manufactured synthetically. The peptide used was a preparation of linear (αL form) Trp-Leu-Asn-Gly-Lys-Glu-Tyr peptide heated to promote isomerisation by the following procedure. The peptide was dissolved in the buffer and heated for 4 hours at 90° C. to promote isomerisation and/or optical inversion. The resulting mix of isomerised (βL) optically inverted (αD and βD) and linear (αL) peptides were analysed by RP-HPLC using a 15-35% acetonitrile gradient in 0.1% TFA over 10 minutes with a flow rate of 1 ml/min, and the isomerisation status of the resulting peaks were studied by amino-acid analysis as described above. This peptide was dissolved at 5 mg/ml in 0.2 M Na-Phosphate pH 9.2. […]
0.5 ml thyroglobulin (30 mg/ml) in 0.1 M Na-phosphate buffer pH 8.0, was added drop-wise (over 2 minutes) and under constant mixing to 0.5 mL of the following solution: 10% GA, 40% H2O, 50% 0.2 M Na-Phosphate pH 8.0. […] The final volume was adjusted to 1500 μL and the protein concentration was determined by a BioRad protein assay performed according to the manufacturers instructions. […]

RA autoantibodies = assay: Competition ELISA: sera pre-incubated with peptides, then Thy-GA-Trp-Leu-*Asx-Gly-Lys-Glu-Tyr coated plates (Example 3); type: binding, human; conditions: 6 RA sera; 50 μl competitor at 50 μg/ml; 17 hours at 4° C.; FIG. 6
Description: The binding of RA autoantibodies to the Thy-GA-Trp-Leu-*Asx-Gly-Lys-Glu-Tyr coated plates as described above could be competed out by pre-incubating the sera with Trp-Leu-*Asx-Gly-Lys-Glu-Tyr peptide in solution. The experiment was carried out as follows. Serum samples were diluted one-hundred fold in 10 mM Na-phosphate, 140 mM NaCl, 0.1% tween-20, 1% BSA pH 7.4 (assay buffer). Two-hundred μl was added to 1.5 ml polypropylene tubes followed by addition of 50 μl of the following reagents dissolved in assay buffer at a concentration of 50 μg/ml:
1. Trp-Leu-Asp-β-Gly-Lys-Glu-Tyr. (βL form of the epitope)
2. Trp-Leu-Asn-Gly-Lys-Glu-Tyr (αL form of the epitope)
3. Thy-GA-Trp-Leu-*Asx-Gly-Lys-Glu-Tyr conjugate (prepared as described in example 2).
The tubes were placed at 4° C. for 17 hours, and one-hundred μl of the mixture was added into MTP coated with Thy-GA-Trp-Leu-*Asx-Gly-Lys-Glu-Tyr conjugate. The assay was performed as described above under example 2.

[4] = tested on: auto-antibodies reactive with isomerised IgG Fc Asn-315 derived peptides; assay: Homogeneous RIA with 125I Thy-GA-Trp-Leu-*Asx-Gly-Lys-Glu-Tyr tracer, competition with peptides (Example 4); type: binding, human; conditions: 25 μl of 100, 1000 or 10,000 ng/ml competitor; peptide significant in the highest concentration; P=0.01 by Student's T-Test; FIG. 8
Description: A homogeneous RIA assay was developed for measurement of auto-antibodies with reactivity towards the isomerised form of the epitope Trp-Leu-Asn-Gly-Lys-Glu-Tyr derived from the IgG CH^2 region. The assay was performed by incubating serum samples with ^125I Thy-GA-Trp-Leu-*Asx-Gly-Lys-Glu-Tyr over-night followed by precipitation of immune-complexes with protein A Sepharose.
Serum samples are diluted 1:200 in IMP buffer (IMP-buffer: 10 mM Na-Phosphate, pH 7.4, 140 mM NaCl, 5 mM EDTA, 0.5% Triton X-100, 0.1% BSA, 10 μg/ml soy-bean trypsin inhibitor). A Thy-GA-Trp-Leu-*Asx-Gly-Lys-Glu-Tyr conjugate is prepared as described in example 2 and iodinated with ^125I using the chloramine T protocol: 100 μg of the conjugate is diluted in 0.25 M Na2HPO4 to a total volume of 140 μl. 1.5 mCi Na^125I is added followed by 10 μL Chloramin-T (1 mg/ml, prepared freshly). The solution is vortexed for 30 seconds and 150 μL methionine (1 mg/ml) is added and immediately vortexed for 120 sec. The tracer is purified on size exclusion column (type: BIOSEP SEC S-2000, size: 300×7.80 mm) equilibrated with PBS containing 1% BSA Flow rate 1.0 ml/min. 500 μl fractions are collected and analysed in a scintillation counter (γ-counter). The fractions containing the tracer are pooled and used in the homogeneous RIA assay format. […]

Substance | reactivity of purified RA auto-antibodies towards cellulose-bound peptide [1] | competition of the binding of RA autoantibodies to Thy-GA-Trp-Leu-*Asx-Gly-Lys-Glu-Tyr coated plates (RA autoantibodies) | also measured
His-Gln-Asp-Trp-Leu-Asp-β-Gly [peptide IV] | strong reactivity |  | 
Pro-Ser-Glu-γ-Gly-Lys-Gly-Arg-Gly |  |  | inhibition of binding of the 125I conjugate to human immunoglobulin by free peptide [2]: specifically inhibited
Trp-Leu-*Asx-Gly-Lys-Glu-Tyr (WLNGKEY; not fully specified (residue 3); printed as Trp-Leu-*Asx-Gly-Lys-Glu-Tyr; also: position 3 Asx: mixture of αD Asn/Asp, βD and βL Asp after heat isomerisation) [linear Trp-Leu-Asn-Gly-Lys-Glu-Tyr heated 4 hours at 90° C; in b143 coated as Thy-GA conjugate] |  | competed out | auto-antibody reactivity (ELISA signal, absorbency at 450 nm) compared between patient groups [3]: elevated auto-antibody reactivity
Trp-Leu-Asp-β-Gly-Lys-Glu-Tyr |  | able to compete out the binding | reactivity in RIA competition (percent inhibition in the presence of competing peptide), group basis [4]: significant reactivity
Trp-Leu-Asp-β-Gly-lys-Glu-Tyr [VII] | strong reactivity |  | 
